Tests used:
Assay type in all cases: cell-based, mouse
[1] = system: Erk 1/2 phosphorylation (pErk); assay: Erk phosphorylation by Western blotting in differentiated C2C12 cells; details: peptides 100 µM, insulin 100 nM, Western blot, three independent experiments
Experimental: (§1) C2C12 cells were used as a well-described model of skeletal muscle to evaluate the effect of peptides in gene expression, cell signaling, and glucose uptake. These cells were kindly provided by Prof. Patricia Brum, School of Physical Education and Prof. Anselmo Moriscot, Biomedical Science Institute, University of São Paulo, São Paulo, Brazil. C2C12 cells were cultured and maintained in high glucose Dulbecco’s modified Eagle’s medium (DMEM; Thermo Fisher Scientific, São Paulo, SP, Brazil) supplemented with 10% fetal bovine serum (FBS), 100 U/mL penicillin, and […] streptomycin in a humidified atmosphere of 5% CO2 at 37 °C. The cells were used in low pass (between passages 2 and 4) for all experiments to maintain the potential for differentiation of cultures. […]
(§2) Western blotting experiments were performed to evaluate the expression levels of specific proteins. […] Western blot bands were visualized with Super-Signal West Pico Chemiluminescent substrate (Thermo Scientific) using the ChemiDoc™ MP Imaging System (BioRad, Hercules, CA, USA), and quantified using ImageJ 1.49 software. All results are expressed as the means ± standard error of the mean (SEM). […] Data were statistically analyzed with GraphPad Prism software (GraphPad Software Inc, San Diego, CA, USA). […]

[2] = system: Akt phosphorylation (pAkt, S473); assay: Akt phosphorylation by Western blotting in differentiated C2C12 cells; details: peptides 100 µM, insulin 100 nM, Western blot, three independent experiments
Experimental: as §1, §2

[3] = system: epididymal adipose tissue explants; assay: Glucose uptake in epididymal adipose tissue explants; details: Ric4 100 µM, insulin 100 nM; 3H-deoxyglucose 1 µCi/mL, Krebs-Ringer bicarbonate buffer, 37 °C
Experimental: Glucose uptake was evaluated in adipose tissue explants from mice bearing or not deletion of insulin receptor in adipocytes essentially as previously described. Briefly, explants of epididymal adipose tissue (20–25 mg) were incubated in 1 mL of Krebs–Ringer bicarbonate buffer (in mmol/L): 118 NaCl, 4.8 KCl, 1.25 CaCl2, 1.2 KH2PO4, 1.2 MgSO4, 25 NaHCO3, and 5.5 glucose and 1 μCi/mL of ^3H-deoxyglucose (New England Radiochemicals, Boston, MA, USA) supplemented with 2% fatty acid-free BSA (Sigma, Oakville, ON, Canada), 7.4. Vials were incubated at 37 °C for […] in the presence or absence of insulin (100 nM) or Ric4 peptide (100 µM). After 30 min, explants were extensively washed and processed to evaluate the uptake of ^3H deoxyglucose as previously described.
Figure 4 Glucose uptake and GLUT4 translocation induced by Ric4 in C2C12 cells. C2C12 cells were previously incubated in serum-free and glucose-free DMEM medium, then incubated with HEPES buffer for 30 min and then incubated for a further 30 min in glucose-uptake buffer containing vehicle, Ric4 (100 µM), or insulin (100 nM) in the presence of ^3H-glucose (1 µCi/mL) or 2-NBDG (80 µM). After incubations cells were lysed with 50 μL of 0.1 N NaOH and fluorescence or radiation of aliquots from the lysate were measured (A). Epididymal adipose tissue explants (20–25 mg) were incubated in Krebs–Ringer bicarbonate buffer containing glucose 5.5 mM and 1 μCi/mL of ^3H-deoxyglucose supplemented with 2% fatty acid-free for 30 min at 37 °C in the presence or absence of insulin (100 nM) or Ric4 (100 µM). The explants were processed to evaluate the uptake of ^3H-deoxyglucose (B). Myotubes were previously incubated in serum-free and glucose-free DMEM medium and then treated with control vehicle PBS or Ric4 (100 µM) for 30 min. Proteins from subcellular fractions: N/ER (C), microsomal (D), plasma membrane (E), were isolated and the expression Glut4 was analyzed by Western blot. Images were quantified using ImageJ 1.49 software. The statistical comparisons were performed using analysis of variance (ANOVA), followed by ad-hoc Tukey’s test using GraphPad Prism software * p < 0.05; # p < 0.05; **** p < 0.0001.

[4] = system: differentiated C2C12 cells; assay: Glucose uptake in C2C12 myotubes; details: peptides 100 µM, insulin 100 nM; 30 min, 37 °C; 3H-glucose (1 µCi/mL) or 2-NBDG (80 µM)
[5] = system: differentiated C2C12 myotubes; assay: qPCR gene expression in differentiated C2C12 myotubes; details: Ric peptides 100 µM, insulin positive control, qPCR normalised to GAPDH, control = 1, mean ± SEM

## Insulin
[1]
  phosphorylation of Erk (pErk over total Erk): increased
[2]
  phosphorylation of Akt (pAkt over total Akt): increased
[3]
  glucose uptake in adipose tissue explants from C57BL6N WT mice: stimulate glucose uptake
  glucose uptake in adipose tissue explants from conditional knockout mice depleted from insulin receptor: neither insulin nor Ric4 were capable of inducing glucose uptake
[4]
  glucose uptake in differentiated C2C12 cells: stimulate glucose uptake
[5]
  relative expression of Myosin, light chain 1 (MYL1): 6.18 ± 1.07

## LASVSTVLTSKYR [Ric4, intracellular peptide derived from hemoglobin alpha subunit, last 13 C-terminal amino acids]
[1]
  phosphorylation of Erk (pErk over total Erk): activated
[2]
  phosphorylation of Akt (pAkt over total Akt): activated
[3]
  glucose uptake in adipose tissue explants from C57BL6N WT mice: stimulate glucose uptake
  glucose uptake in adipose tissue explants from conditional knockout mice depleted from insulin receptor: neither insulin nor Ric4 were capable of inducing glucose uptake
[4]
  glucose uptake in differentiated C2C12 cells: stimulate glucose uptake
[5]
  relative expression of Myosin, light chain 1 (MYL1): 3.58 ± 1.07
